Test results: US20110086759A1, “CHEMICAL COMPOUNDS” (SYNGENTA CROP PROTECTION, INC., priority 2007, published 2011)

Tests used:
Assay type in all cases: in vivo
[1] = test system: Echinochloa crus-galli (ECHCG); experiment: Pre-emergence biological efficacy, glasshouse pot test; settings: 312 h
In short: (§1)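 One day after seeds were sown in pots, compound was sprayed at 1000 or 250 g/ha. Plants were kept at 24/16 °C with 14 h light and 65% humidity and watered twice daily; damage was graded at day 13 (0 none, 100 total).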

[2] = test system: Ipomea hederaceae (IPOHE); experiment: as above; settings: Ipomoea hederacea, 312 h
In short: as §1

[3] = test system: Setaria faberi (SETFA); experiment: as above; settings: 312 h
In short: as §1

[4] = test system: Solanum nigrum (SOLNI); experiment: as above; settings: 312 h
In short: as §1

[5] = test system: Amaranthus retoflexus (AMARE); experiment: as above; settings: Amaranthus retroflexus, 312 h
In short: as §1

[6] = test system: Alopecurus myosuroides (ALOMY); experiment: as above; settings: 312 h
In short: as §1

[7] = test system: Echinochloa crus-galli (ECHCG); experiment: Post-emergence biological efficacy, glasshouse pot test; settings: 312 h
In short: (§2)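 Plants were sown in standard soil and grown 8 days in a glasshouse (24/16° C. day/night, 14 hours light, 65% humidity), then sprayed post-emergence at 1000 or 250 g/ha from acetone/water (50:50) with 0.5% Tween 20. Damage was scored visually after 13 days (0 = none, 100 = total).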

[8] = test system: Ipomea hederaceae (IPOHE); experiment: as above; settings: Ipomoea hederacea, 312 h
In short: as §2

[9] = test system: Setaria faberi (SETFA); experiment: as above; settings: 312 h
In short: as §2

[10] = test system: Solanum nigrum (SOLNI); experiment: as above; settings: 312 h
In short: as §2

[11] = test system: Amaranthus retoflexus (AMARE); experiment: as above; settings: Amaranthus retroflexus, 312 h
In short: as §2

[12] = test system: Alopecurus myosuroides (ALOMY); experiment: as above; settings: 312 h
In short: as §2

[13] = pre-emergence, rate 1,000 g/ha, evaluated after 13 days (100=total damage to plant; 0=no damage), read-out: Percentage damage caused to weed species, ECHCG
[14] = pre-emergence, rate 1,000 g/ha, evaluated after 13 days (100=total damage to plant; 0=no damage), read-out: Percentage damage caused to weed species, IPOHE
[15] = pre-emergence, rate 1,000 g/ha, evaluated after 13 days (100=total damage to plant; 0=no damage), read-out: Percentage damage caused to weed species, SETFA
[16] = pre-emergence, rate 1,000 g/ha, evaluated after 13 days (100=total damage to plant; 0=no damage), read-out: Percentage damage caused to weed species, SOLNI
[17] = pre-emergence, rate 1,000 g/ha, evaluated after 13 days (100=total damage to plant; 0=no damage), read-out: Percentage damage caused to weed species, AMARE
[18] = pre-emergence, rate 1,000 g/ha, evaluated after 13 days (100=total damage to plant; 0=no damage), read-out: Percentage damage caused to weed species, ALOMY
[19] = Rate 1,000 g/ha, post-emergence spray, evaluated after 13 days (100=total damage to plant; 0=no damage to plant), read-out: Percentage damage caused to weed species, post-emergence, ECHCG
[20] = Rate 1,000 g/ha, post-emergence spray, evaluated after 13 days (100=total damage to plant; 0=no damage to plant), read-out: Percentage damage caused to weed species, post-emergence, IPOHE
[21] = Rate 1,000 g/ha, post-emergence spray, evaluated after 13 days (100=total damage to plant; 0=no damage to plant), read-out: Percentage damage caused to weed species, post-emergence, SETFA
[22] = Rate 1,000 g/ha, post-emergence spray, evaluated after 13 days (100=total damage to plant; 0=no damage to plant), read-out: Percentage damage caused to weed species, post-emergence, SOLNI
[23] = Rate 1,000 g/ha, post-emergence spray, evaluated after 13 days (100=total damage to plant; 0=no damage to plant), read-out: Percentage damage caused to weed species, post-emergence, AMARE
[24] = Rate 1,000 g/ha, post-emergence spray, evaluated after 13 days (100=total damage to plant; 0=no damage to plant), read-out: Percentage damage caused to weed species, post-emergence, ALOMY
[25] = pre-emergence, 1,000 g/ha, evaluated after 13 days (100=total damage; 0=no damage), read-out: Percentage damage ECHCG
[26] = pre-emergence, 1,000 g/ha, evaluated after 13 days (100=total damage; 0=no damage), read-out: Percentage damage IPOHE
[27] = pre-emergence, 1,000 g/ha, evaluated after 13 days (100=total damage; 0=no damage), read-out: Percentage damage SETFA
[28] = pre-emergence, 1,000 g/ha, evaluated after 13 days (100=total damage; 0=no damage), read-out: Percentage damage SOLNI
[29] = pre-emergence, 1,000 g/ha, evaluated after 13 days (100=total damage; 0=no damage), read-out: Percentage damage AMARE
[30] = pre-emergence, 1,000 g/ha, evaluated after 13 days (100=total damage; 0=no damage), read-out: Percentage damage ALOMY
[31] = post-emergence, 1,000 g/ha, evaluated after 13 days (100=total damage; 0=no damage), read-out: Percentage damage caused to weed species, ECHCG
[32] = post-emergence, 1,000 g/ha, evaluated after 13 days (100=total damage; 0=no damage), read-out: Percentage damage caused to weed species, IPOHE
[33] = post-emergence, 1,000 g/ha, evaluated after 13 days (100=total damage; 0=no damage), read-out: Percentage damage caused to weed species, SETFA
[34] = post-emergence, 1,000 g/ha, evaluated after 13 days (100=total damage; 0=no damage), read-out: Percentage damage caused to weed species, SOLNI
[35] = post-emergence, 1,000 g/ha, evaluated after 13 days (100=total damage; 0=no damage), read-out: Percentage damage caused to weed species, AMARE
[36] = post-emergence, 1,000 g/ha, evaluated after 13 days (100=total damage; 0=no damage), read-out: Percentage damage caused to weed species, ALOMY

Structure (SMILES)	pest or weed control at 1000 g/ha [1, 13]	pest or weed control at 1000 g/ha [2, 14]	pest or weed control at 1000 g/ha [3, 15]	pest or weed control at 1000 g/ha [4, 16]	pest or weed control at 1000 g/ha [5, 17]	pest or weed control at 1000 g/ha [6, 18]	pest or weed control at 1000 g/ha [7, 19]	pest or weed control at 1000 g/ha [8, 20]	pest or weed control at 1000 g/ha [9, 21]	pest or weed control at 1000 g/ha [10, 22]	pest or weed control at 1000 g/ha [11, 23]	pest or weed control at 1000 g/ha [12, 24]	pest or weed control at 1000 g/ha [1, 25]	pest or weed control at 1000 g/ha [2, 26]	pest or weed control at 1000 g/ha [3, 27]	pest or weed control at 1000 g/ha [4, 28]	pest or weed control at 1000 g/ha [5, 29]	pest or weed control at 1000 g/ha [6, 30]	pest or weed control at 1000 g/ha [7, 31]	pest or weed control at 1000 g/ha [8, 32]	further results
COC(=O)c1nc(-c2ccc(Cl)c(C(F)(F)F)c2F)nc(NCc2ccco2)c1Cl [Compound 230-48, 5-Chloro-2-(4-chloro-2-fluoro-3-trifluoro-methylphenyl)-4-(furan-2-ylmethyl-amino)-6-methoxy-carbonylpyrimidine]	20%	50%	50%	70%	70%	30%	90%	60%	70%	80%	100%	30%									
COC(=O)c1nc(C2CC2)nc(NC2(/C=C/c3cccs3)CC2)c1Cl [Compound 4-23, 5-Chloro-2-cyclopropyl-6-methoxycarbonyl-4-[1-(2-thiophen-2-ylethenyl)-cyclopropylamino]-pyrimidine]													0%	70%	0%	60%	70%	10%	60%	100%	pest or weed control at 1000 g/ha [9, 33]: 70%; pest or weed control at 1000 g/ha [10, 34]: 80%; pest or weed control at 1000 g/ha [11, 35]: 100%; pest or weed control at 1000 g/ha [12, 36]: 20%
COC(=O)c1nc(C2CC2)nc(NCc2ccc(Cl)cc2Cl)c1Cl [Compound 4-103, 5-Chloro-2-cyclopropyl-4-(2,4-dichlorophenyl-methylamino)-6-methoxycarbonyl-pyrimidine]													0%	30%	0%	10%	40%	10%	60%	90%	pest or weed control at 1000 g/ha [9, 33]: 70%; pest or weed control at 1000 g/ha [10, 34]: 80%; pest or weed control at 1000 g/ha [11, 35]: 100%; pest or weed control at 1000 g/ha [12, 36]: 20%
COC(=O)c1nc(C2CC2)nc(N(C)Cc2cccc([N+](=O)[O-])c2)c1Cl [Compound 5-91, 5-Chloro-2-cyclopropyl-6-methoxycarbonyl-4-[N-methyl-N-(3-nitrophenylmethyl)-amino]pyrimidine]	0%	30%	10%	60%	70%	10%	30%	80%	40%	80%	100%	20%									
COC(=O)c1nc(C2CC2)nc(N[C@@H](Cc2ccccc2)C(=O)OC(C)(C)C)c1Cl [4-293 (S), 4-[(1S)-1-^tButoxycarbonyl-2-phenyl-ethylamino]-5-chloro-2-cyclopropyl-6-methoxycarbonyl-pyrimidine]	20%	60%	0%	50%	40%	10%	20%	80%	40%	80%	100%	10%									
